Test results from patent US8158811B2, “Unsaturated fatty hydroxy acid derivatives and the dermocosmetologic use thereof” (Pierre Fabre Dermo-Cosmetique, priority 2005, dated 2012).

How the values were obtained:
[1] = tested on: membrane lipids, fibroblast line L929; assay: TBARS test, lipid peroxidation after H2O2/Fe2+/Fe3+; format: cell-based, murin; conditions: 0.02 ng/ml, pretreated 16 hours
Description: In order to evaluate membrane changes, we measured lipid peroxidation by in vitro assay of complexes between the products of lipid oxidation and thiobarbituric acid. These complexes are called TBARS (thiobarbituric acid reactive substances) and give the test its name: TBARS Test.
In order to mimic chemical oxidative stress, we treated a fibroblast line (L929) with a complex consisting of hydrogen peroxide (H2O2) and iron (Fe^2+/Fe^3+) thus reconstituting the Fenton reaction which is the source of oxygenated free radicals and particularly the hydroxyl radical (OH°) (D. A Vessey et al. 1992): H2O2+Fe^2+→OH°+OH^−+Fe^3+
The products were evaluated on a murin fibroblast line L929. Cells were pretreated with different concentrations of the product for 16 hours and were then stimulated with the H2O2/Fe^2+/Fe^3+ complex (200 μM−1 mM) for 1 hour. • Stock solutions: 100 mg/ml ethanol, 4° C. • Final solutions: 0.02 ng/ml.
Peroxidation of membrane lipids was analysed by measuring TBARS (Protocol ref. PLN°2, according to Morliere et al, 1991).
[…]. TBARS assays are therefore expressed in pmole/μg of protein. Proteins and TBARS are assayed in the intracellular medium.
Using the TBARS calculation in pmole/μg protein, we calculated the protective efficacy of various products against the oxidation of lipid membranes.
Four separate experiments were carried out. Several compounds were evaluated in the course of these experiments (the test only allows 10 molecules to be evaluated at one time). The compounds were evaluated several times and were chosen as a function of the results obtained in another test which also measured anti-radical activity (assay test for activated oxygen species).
The model used in this experiment (Fenton reaction) triggers considerable lipid peroxidation of the L929 fibroblasts. This massive release of the hydroxyl radical OH° thus generates oxidative stress in the cells, particularly in the membranes. However, in this type of oxidative reaction, the products resulting from lipid peroxidation are internalized in the cells and TBARS are therefore assayed in the intracellular medium.

transglutaminase 1 (TG1) = assay: keratinocyte differentiation, real-time RT-PCR of transglutaminase 1 transcripts; format: cell-based, human; conditions: NHK, 48 hours
Procedure: (§1) Normal human keratinocytes (NHK) proliferate and differentiate in vitro, forming stratified layers which mimic the basal organisation of the skin. Extracellular calcium concentrations in excess of 0.1 mM initiate a cascade of genome and non-genome events which take the keratinocytes from a proliferative phase towards a differentiation phase. Keratinocyte differentiation can then be evaluated by studying the expression of several markers such as keratins 1 and 10, transglutaminase 1, desaturase DES2, involucrine, FATP4 and ABCG1 transporters. We therefore evaluated the effect of certain hydroxyalcene carboxylic acids in an in vitro culture model.
(§2) Normal human keratinocytes are isolated from skin explants. They are cultured in KSFM medium (Gibco) with a low calcium content (0.1 mM) containing 25 μg/ml of BPE (bovine pituitary extract) and […] of EGF (epithelium growth factor). 24 hours after culturing, differentiation is triggered by the addition of calcium (final concentration 1.2 mM). The active ingredients are added or not at the same time as calcium at concentrations of 100 and 1 μg/ml in order to determine whether or not they have a potentialising effect on differentiation. Cells were then analysed 48 hours after the addition of calcium and these products.
(§3) Total RNA was extracted under cold conditions from keratinocytes.
(§4) After reverse transcription of mRNA into cDNA, PCRs were made up in 96 well plates (iCycler quantitative PCR apparatus, BioRad). Expression of transcripts of transglutaminase, desaturase (DES2), ABCG1 and FATP4 were standardized with respect to the expression of reference genes (GAPDH, UBC, HPRT).

desaturase DES2 = assay: keratinocyte differentiation, real-time RT-PCR of DES2 transcripts; format: cell-based, human; conditions: NHK, 48 hours
Procedure: as §1, §2, §3, §4

FATP4 = assay: keratinocyte differentiation, real-time RT-PCR of FATP4 transcripts; format: cell-based, human; conditions: NHK, 48 hours
Procedure: as §1, §2, §3, §4

prostaglandin 6KF1α = assay: production of prostaglandin 6KF1α by keratinocytes stimulated with calcium ionophore A23187 (ELISA); format: cell-based; conditions: 3 μg/ml, A23187 1 μm 5 hours
Procedure: A suspension of keratinocytes in DMEM 10% foetal calf serum was divided into 6 well plates (1.2. 106cells/wells) and incubated for 16 hours at 37° C. in a 5% CO2 atmosphere. The keratinocytes were then rinsed with PBS in order to eliminate non adhering cells then exposed to the products to be tested included in DMEM without foetal calf serum (which could interfere with the assay).
The concentration tested in culture was 3 μg/ml. This was retained as the test concentration after a preliminary evaluation test for cytotoxicity (neutral red) and is not cytotoxic.
For each treatment, three wells were tested. Cells were pre-incubated for 60 minutes with the products to be tested then a stimulating agent was added to stimulate the arachidonic acid cascade (calcium ionophore) which was added for 5 hours: calcium ionophore A23187 was used at a concentration of 1 μm.
After 5 hours in culture, the culture medium for each well was recovered, centrifuged at 3000 rpm and stored at −80° C.
The production of prostaglandin 6KF1α for each of the tests was measured using a EUROMEDEX Elisa Kit.
Results are expressed as the percentage activity/stimulated control.

Interleukin 8 = assay: release of Interleukin 8 by keratinocytes NHK stimulated with PMA + calcium ionophore A23187 (ELISA); format: cell-based, human; conditions: for % inhibition of IL-8 release: 3 μg/ml, keratinocytes, PMA + A23187 6 hours; for % Inhibition a 3 μg/ml: IL8 release, NHK, PMA + A23187
Procedure: In this study, carried out using 96 well plates, we evaluated the activity of hydroxyl alkine acids on the production of Interleukin 8 produced in the keratinocytes by phorbol ester PMA and calcium ionophore A23187.
A suspension of keratinocytes in supplemented KSFM was divided between 96 well plates (3.10^4 cells/wells) and incubated for 16 hours at 37° C. under an atmosphere of 5% CO2. The keratinocytes were then rinsed with PBS in order to eliminate non adhering cells then exposed to the products to be tested included in non supplemented KSFM (which could interfere with the assay).
The concentration tested in culture was 3 μg/ml. This was retained after a preliminary test to evaluate cytotoxicity (neutral red) and is not cytotoxic.
3 wells were used for each treatment. Cells were preincubated for 60 minutes with the products to be tested then stimulated, in parallel to negative controls without stimulant: Phorbol Myristate Acetate (PMA) 1 μm+Calcium ionophore (A23187) 0.1 μm.
Incubation for 6 hours at 37° C. in a humid air atmosphere containing 5% CO2.
The culture medium for each of the wells was recovered, centrifuged at 3000 rpm and stored at −80° C.
Cytokine assay: IL8 was assayed using the ELISA kit immunoenzyme method (immunotech).
The results are given as percentage activity/stimulated control.
The compounds according to the invention were evaluated in terms of anti-inflammatory activity on the release of Interleukin 8 by human keratinocytes NHK stimulated by phorbol ester PMA+calcium ionophore A23187.

| SMILES | Induction Factor vs Control (CaCl2 1.2 mM) TG1 (transglutaminase 1 (TG1); 1 μg/ml) | Induction Factor vs Control (CaCl2 1.2 mM) TG1 (transglutaminase 1 (TG1); 100 μg/ml) | Induction Factor vs Control (CaCl2 1.2 mM) DES2 (desaturase DES2; 1 μg/ml) | Induction Factor vs Control (CaCl2 1.2 mM) DES2 (desaturase DES2; 100 μg/ml) | % membrane lipid protection, Mean [1] | Induction Factor vs Control (CaCl2 1.2 mM) FATP4 (FATP4; 1 μg/ml) | Induction Factor vs Control (CaCl2 1.2 mM) FATP4 (FATP4; 100 μg/ml) | % inhibiting activity of evaluated molecules on the production of PG6KF1α Inflammation (prostaglandin 6KF1α) | % inhibition of IL-8 release (Interleukin 8) | % Inhibition a 3 μg/ml (Interleukin 8) |
| --- | --- | --- | --- | --- | --- | --- | --- | --- | --- | --- |
| O=C(O)C(F)=CCCCCCCCCCCCO [n=10, R=H, Rn=H, R1=F, 14-hydroxy-tetradec-2-fluoro-2-enoic acid] | 1.4 | 3.5 | 1.6 | 16.0 | 13.13% | 1.0 | 2.3 | 18% | 30% |  |
| O=C(O)/C=C/CCCCCCCCCCCO [n=10, R=H, Rn=H, R1=H, 14-hydroxy-tetradec-2t-enoic acid] | 1.5 | 31.4 | 2.0 | 125.8 | 27.18% | 1.2 | 5.9 | Non active | 30% |  |
| O=C(O)/C=C/CCCCCCCCCCO [n=9, R=H, Rn=H, R1=H, 13-hydroxy-tridec-2t-enoic acid] | 1.4 | 14.8 | 1.8 | 51.7 | 8.72% | 1.2 | 4.5 | 31% | 16% |  |
| O=C(O)/C=C/CCCCCCCCCCCCCCO [n=13, R=H, Rn=H, R1=H, 17-hydroxy-heptadec-2t-enoic acid] | 1.4 |  | 3.0 |  | 22.10% | 1.4 |  | 25% | 62% | 62% |
| O=C(O)C=CCCCCO [n=3, R=H, Rn=H, R1=H] | 1.2 | 2.6 | 1.6 | 2.4 | 15.7% | 1.4 | 1.2 | 29% | 50% |  |

Second part, led by results:

| Induction Factor vs Control (CaCl2 1.2 mM) TG1 (transglutaminase 1 (TG1); 1 μg/ml) | Induction Factor vs Control (CaCl2 1.2 mM) TG1 (transglutaminase 1 (TG1); 100 μg/ml) | Induction Factor vs Control (CaCl2 1.2 mM) DES2 (desaturase DES2; 1 μg/ml) | Induction Factor vs Control (CaCl2 1.2 mM) DES2 (desaturase DES2; 100 μg/ml) | SMILES | % membrane lipid protection, Mean [1] | Induction Factor vs Control (CaCl2 1.2 mM) FATP4 (FATP4; 1 μg/ml) | Induction Factor vs Control (CaCl2 1.2 mM) FATP4 (FATP4; 100 μg/ml) | % inhibiting activity of evaluated molecules on the production of PG6KF1α Inflammation (prostaglandin 6KF1α) | % inhibition of IL-8 release (Interleukin 8) | % Inhibition a 3 μg/ml (Interleukin 8) |
| --- | --- | --- | --- | --- | --- | --- | --- | --- | --- | --- |
| 1.6 | 1.7 | 2.2 | 3.2 | O=C(O)C(F)=CCCCCCO (mixture of isomers) [n=4, R=H, Rn=H, R1=F] | 36.54% | 1.3 | 1.4 | 30% | Non-active |  |
| 1.2 | 1.7 | 1.0 | 2.2 | O=C(O)C=CCCCCCO [n=4, R=H, Rn=H, R1=H] | 37.88% | 1.0 | 1.4 |  | 15% |  |
| 4.2 |  | 9.0 |  | O=C(O)C(F)=CCCCCCCCCCCCCCCO [n=13, R=H, Rn=H, R1=F, 17-hydroxy-heptadec-2-fluoro-2-enoic acid] | 7.39% | 2.2 |  | 14% | 107% | 107% |
